Data published in patent publication US20060100257A1, “Inhibitors against the activation of ap-1 and nfat” (priority 2002, published 2006).

Tests used:
NFAT [1] = experiment: Inhibition of NFAT activation (2) (NFAT Luc reporter, HepG2); type: cell-based, human; details: HepG2, TPA (200 nM) and ionomycin (2 μM); for Inhibition Ratio of NFAT Activation(%) Drug Concentration 1 μg/mL: test compound 1 μg/mL; for Inhibition Ratio of NFAT Activation(%) Drug Concentration 1 μM: test compound 1 μM
Protocol: Measurement of Inhibition of NFAT Activation (2)
Using a transfection reagent (Effectene; QIAGEN), the human hepatoma cell strain HepG2 was transfected with a plasmid (NFAT Luc) which was integrated with an NFAT binding sequence on a upstream region of the firefly luciferase gene (Luc) according to the QIAGEN's protocol, and the cells were incubated for 20 to 24 hours.
After incubation of the cells in the presence or absence of a test compound for 4 hours, TPA (200 nM) and ionomycin (2 μM) were added and the cells were incubated for 20 to 24 hours.
Then, intracellular luciferase activity was measured by using PicaGene LT(TOYO INK MFG Co., Ltd.) and a chemical luminescence measurement apparatus (SPECTRAFluor Plus; TECAN).
The inhibitory ratio was measured as a ratio relative to the value of the luciferase activity in the absence of the test compound.

AP-1 [2] = experiment: Inhibition of AP-1 activation by TNF α stimulation (pAP-1-Luc reporter, HeLa); type: cell-based, human; details: TNF-α (40 ng/ml), 4 hours; for Inhibitory Ratio of AP-1 Activation(%) Drug Concentration 1 μg/mL: test compound 1 μg/mL; for Inhibitory Ratio of AP-1 Activation(%) Drug Concentration 10 μg/mL: test compound 10 μg/mL
Protocol: Measurement of Inhibition of AP-1 Activation by TNF α Stimulation
Using a transfection reagent (Effectene; QIAGEN), the human uterine cancer cell strain HeLa was transfected with a plasmid (pAP-1-Luc Reporter Plasmid: STRATAGENE) according to the QIAGEN's protocol, which was integrated with an oligonucleotide having seven tandem copies of AP-1 binding sequences (TGACTAA) on a upstream region of firefly luciferase gene (Luc), and the cells were incubated for 6 to 24 hours. Then, the cells were added with TNF-α (40 ng/ml) in the presence or absence of a test compound and incubated for 4 hours, and intracellular luciferase activity was measured by using PicaGene LT(TOYO INK MFG Co., Ltd.) and chemical luminescence measurement apparatus(SPECTRAFluor Plus; TECAN). The inhibitory ratio was obtained as a ratio relative to the value of the luciferase activity in the absence of the test compound.

AP-1 [3] = experiment: Inhibition of AP-1 activation by forced expression of MEKK-1 (pAP-1-Luc reporter, HepG2); type: cell-based, human; details: HepG2, MEKK-1 expression plasmid, 24 hours; for Inhibitory Ratio of AP-1 Activation(%) Drug Concentration 1 μg/mL: test compound 1 μg/mL; for Inhibitory Ratio of AP-1 Activation(%) Drug Concentration 1 μM: test compound 1 μM
Description: Measurement of Inhibition of AP-1 Activation by Forced Expression of MEKK-1
Using a transfection reagent (Effectene; QIAGEN), the human hepatoma cell strain HepG2 was cotransfected with a plasmid (pAP-1-Luc Reporter Plasmid: STRATAGENE), integrated with an oligonucleotide having seven tandem copies of AP-1 binding sequences (TGACTAA) on an upstream region of the firefly luciferase gene (Luc), and the MEKK-1 expression plasmid (pFCMEKK: STRATAGENE) according to the QIAGEN's protocol, and the cells were incubated for 20 to 24 hours. Then, after the cells were incubated in the presence or absence of a test compound for 24 hours, intracellular luciferase activity was measured by using PicaGene LT(TOYO INK MFG Co., Ltd.) and a chemical luminescence measurement apparatus (SPECTRAFluor Plus; TECAN). The inhibitory ratio was measured as a ratio relative to the value of the luciferase activity in the absence of the test compound.

NFAT [4] = experiment: Inhibition of NFAT activation (1) (NFAT-LacZ reporter, Jurkat cell); type: cell-based; details: A23187 and PMA, 4 hours
Protocol: Measurement of Inhibition of NFAT Activation (1)
A Jurkat cell transfected with a reporter plasmid (NFAT-LacZ), which was integrated with the NFAT binding sequence on a upstream region of the β-galactosidase gene (LacZ) according to the method described in the “Proceedings of The National Academy of Sciences of The United States of America” 1991, Vol. 88, No. 9, p. 3972-3976, was incubated for 4 hours in the Modified RPMI 1640 medium in the presence of A23187 as a calcium ionophore and PMA (Phorbol 12-myristate 13-acetate), and in the presence or absence of a test compound. Then, intracellular β-galactosidase activity was measured by the method described in the “Proceedings of The National Academy of Sciences of The United States of America” 1991, Vol. 88, No. 9, p. 3972-3976. The inhibitory ratio was obtained as a ratio relative to the value of the β-galactosidase activity in the absence of the test compound.

SMILES | Inhibition Ratio of NFAT Activation(%) Drug Concentration 1 μg/mL (NFAT [1]) [%] | Inhibitory Ratio of AP-1 Activation(%) Drug Concentration 1 μg/mL (AP-1 [2]) [%] | Inhibitory Ratio of AP-1 Activation(%) Drug Concentration 10 μg/mL (AP-1 [2]) [%] | Inhibitory Ratio of AP-1 Activation(%) Drug Concentration 1 μg/mL (AP-1 [3]) [%] | further results
O=C(Nc1cc(C(F)(F)F)cc(C(F)(F)F)c1)c1cc(-c2ccccc2)ccc1O [Compound No. 67] | >99.9 | 18.1 | 60.9 | 94.8 | –
O=C(Nc1cc(C(F)(F)F)cc(C(F)(F)F)c1)c1cc(C#Cc2ccccc2)ccc1O [Compound No. 65, N-[3,5-bis(trifluoromethyl)phenyl]-2-hydroxy-5-(phenylethynyl)benzamide] | – | – | 44.1 | – | –
CCOC(=O)c1sc(NC(=O)c2cc(-c3cccs3)ccc2O)nc1-c1ccccc1 [compound 223, 2-[2-Hydroxy-5-(2-thienyl)benzoyl]amino-4-phenylthiazole-5-carboxylic acid ethyl ester] | – | – | 7.0 | – | –
O=C(Nc1cc(C(F)(F)F)cc(C(F)(F)F)c1)c1cc(I)ccc1O [Compound No. 52, N-[3,5-bis(trifluoromethyl)phenyl]-2-hydroxy-5-iodobenzamide] | – | 25.4 | 82.4 | – | –
O=C(Nc1cc(C(F)(F)F)cc(C(F)(F)F)c1)c1cc(Cl)ccc1O [Compound No. 50, N-[3,5-Bis(trifluoromethyl)phenyl]-5-chloro-2-hydroxybenzamide] | 99.5 | 42.4 | 89.1 | 99.4 | Inhibition Ratio of NFAT Activation(%) Drug Concentration 1 μM (NFAT [1]): 94.8%; Inhibitory Ratio of AP-1 Activation(%) Drug Concentration 1 μM (AP-1 [3]): 90.7%; Inhibitory Ratio of NFAT Activation(%) Drug Concentration 1 μM (NFAT [4]; test compound 1 μM): 70%; Inhibitory Ratio of NFAT Activation(%) Drug Concentration 10 μM (NFAT [4]; test compound 10 μM): 100%
CC(C)(C)c1nc(NC(=O)c2cc(Br)ccc2O)sc1N1CCN(c2ccccc2)CC1 [compound 201, 5-Bromo-N-{4-[(1,1-dimethyl)ethyl]-5-(4-phenylpiperazin-1-yl)thiazol-2-yl}-2-hydroxybenzamide] | >99.9 | – | – | 79.1 | –
CC(=O)Oc1ccccc1C(=O)Nc1cc(Cl)cc(Cl)c1 [compound 172, 2-acetoxy-N-(3,5-dichlorophenyl)benzamide] | – | – | – | – | melting point: 218 to 219 °C
CC(C)(C)c1nc(NC(=O)c2cc(Br)ccc2O)sc1N1CCOCC1 [compound 199, 5-Bromo-N-{4-[(1,1-dimethyl)ethyl]-5-morpholinothiazol-2-yl}-2-hydroxybenzamide] | >99.9 | – | – | 70.6 | –
CC(C)(C)c1ccc(O)c(C(=O)Nc2cc(C(F)(F)F)cc(C(F)(F)F)c2)c1 [Compound No. 56, N-[3,5-Bis(trifluoromethyl)phenyl]-5-[(1,1-dimethyl)ethyl]-2-hydroxybenzamide] | 99.7 | – | – | 96.3 | Inhibition Ratio of NFAT Activation(%) Drug Concentration 1 μM (NFAT [1]): 88.9%; Inhibitory Ratio of AP-1 Activation(%) Drug Concentration 1 μM (AP-1 [3]): 82.6%
O=C(Nc1cc(C(F)(F)F)cc(C(F)(F)F)c1)c1cc(-n2cccc2)ccc1O [Compound No. 71] | >99.9 | – | – | 98.0 | –
CC(C)(C)C(=O)c1sc(NC(=O)c2cc(Cl)ccc2O)nc1C(C)(C)C [compound 195, 5-Chloro-N-{4-[(1,1-dimethyl)ethyl]-5-[(2,2-dimethyl)propionyl]thiazol-2-yl}-2-hydroxybenzamide] | 86.7 | – | – | 95.5 | Inhibition Ratio of NFAT Activation(%) Drug Concentration 1 μM (NFAT [1]): 96.8%; Inhibitory Ratio of AP-1 Activation(%) Drug Concentration 1 μM (AP-1 [3]): 91.2%
CCOC(=O)c1sc(NC(=O)c2cc(Br)ccc2O)nc1-c1ccccc1 [compound 209, 2-(5-bromo-2-hydroxybenzoyl)amino-4-phenylthiazole-5-carboxylic acid ethyl ester] | – | 21.7 | 55.3 | – | –
